This note sets out measurements from ChEMBL document CHEMBL3822390, “Synthesis, characterization and anti-cancer activity of a peptide nucleolipid bioconjugate” (2016).

Molecules are shown by their SMILES.

Assay type in all cases: functional
Assay [1] in a line: Cytotoxicity against human HCC2998 cells assessed as cell growth at 2.13 uM after 48 hrs by SRB assay. The settings on record: HCC 2998, 48 h, read-out: Activity.
Assay [2] in a line: Cytotoxicity against human DU145 cells assessed as cell growth at 2.13 uM after 48 hrs by SRB assay. The settings on record: DU-145, 48 h, read-out: Activity. A general note: Sulforhodamine B stains cellular protein and so reports cell mass.
Assay [3] has as its system HT-29. The assay is described as follows: Cytotoxicity against human HT-29 cells assessed as cell growth at 2.13 uM after 48 hrs by SRB assay. The settings on record: HT-29, 48 h, read-out: Activity.
Assay [4] deals with KM12. Put plainly: Cytotoxicity against human KM12 cells assessed as cell growth at 2.13 uM after 48 hrs by SRB assay. The settings on record: KM12, 48 h, read-out: Activity.
In assay [5] the test system is A549. The assay is described as follows: Cytotoxicity against human A549 cells assessed as cell mortality at 2.13 uM after 48 hrs by SRB assay. The conditions noted are these: A549, 48 h.
A short description of assay [6]: Cytotoxicity against human OVCAR5 cells assessed as cell growth at 2.13 uM after 48 hrs by SRB assay. The conditions noted are these: OVCAR-5, 48 h, read-out: Activity.
A short description of assay [7]: Cytotoxicity against human SF539 cells assessed as cell growth at 2.13 uM after 48 hrs by SRB assay. The settings on record: SF-539, 48 h, read-out: Activity.
Assay [8] in a line: Cytotoxicity against human UACC257 cells assessed as cell growth at 2.13 uM after 48 hrs by SRB assay. The settings on record: UACC-257, 48 h, read-out: Activity.
For the next assay, the system named is Malme-3M. Put plainly: Cytotoxicity against human MALME-3M cells assessed as cell growth at 2.13 uM after 48 hrs by SRB assay. The settings on record: read-out: Activity.
The nature of assay [9]: Cytotoxicity against human SF295 cells assessed as cell growth at 2.13 uM after 48 hrs by SRB assay. The conditions noted are these: SF-295, 48 h, read-out: Activity.
Assay [10] is described as follows: Cytotoxicity against human HOP92 cells assessed as cell growth at 2.13 uM after 48 hrs by SRB assay. The conditions noted are these: HOP-92, 48 h, read-out: Activity.
In a further assay the test system is MCF7. Put plainly: Cytotoxicity against human MCF7 cells assessed as cell growth at 2.13 uM after 48 hrs by SRB assay. The settings on record: MCF7, 48 h, read-out: Activity.
Assay [11] is described as follows: Cytotoxicity against human UACC62 cells assessed as cell growth at 2.13 uM after 48 hrs by SRB assay. The settings on record: UACC-62, 48 h, read-out: Activity.
For assay [12], the system named is A498. The assay is described as follows: Cytotoxicity against human A498 cells assessed as cell growth at 2.13 uM after 48 hrs by SRB assay. The settings on record: A498, 48 h, read-out: Activity.
The nature of assay [13]: Cytotoxicity against human RXF393 cells assessed as cell growth at 10 uM after 48 hrs by SRB assay. The settings on record: RXF 393, 48 h, read-out: Activity.
Assay [14] in a line: Cytotoxicity against human UACC257 cells assessed as cell growth at 10 uM after 48 hrs by SRB assay. The settings on record: UACC-257, 48 h, read-out: Activity.
Assay [15] in a line: Cytotoxicity against human BT549 cells assessed as cell growth at 10 uM after 48 hrs by SRB assay. The conditions noted are these: BT-549, 48 h, read-out: Activity.
Another assay concerns NCI-H23. Put plainly: Cytotoxicity against human NCI-H23 cells assessed as cell growth at 10 uM after 48 hrs by SRB assay. The settings on record: NCI-H23, 48 h, read-out: Activity.
The subject of assay [16] is HT-29. Put plainly: Cytotoxicity against human HT-29 cells assessed as cell growth at 10 uM after 48 hrs by SRB assay. The settings on record: HT-29, 48 h, read-out: Activity.
The test system of assay [17] is KM12. The assay is described as follows: Cytotoxicity against human KM12 cells assessed as cell growth at 10 uM after 48 hrs by SRB assay. The settings on record: KM12, 48 h, read-out: Activity.
Assay [18] concerns A549. Put plainly: Cytotoxicity against human A549 cells assessed as cell mortality at 10 uM after 48 hrs by SRB assay. The conditions noted are these: A549, 48 h.
The next assay concerns SK-MEL-2. Put plainly: Cytotoxicity against human SK-MEL-2 cells assessed as cell growth at 10 uM after 48 hrs by SRB assay. The settings on record: SK-MEL-2, 48 h, read-out: Activity.
The test system of assay [19] is NCI-H322M. Put plainly: Cytotoxicity against human NCI-H322M cells assessed as cell growth at 10 uM after 48 hrs by SRB assay. The settings on record: read-out: Activity.
For another assay, the system named is CCRF-CEM. The assay is described as follows: Cytotoxicity against human CCRF-CEM cells assessed as cell growth at 10 uM after 48 hrs by SRB assay. The settings on record: read-out: Activity.
In another assay the test system is EKVX. Put plainly: Cytotoxicity against human EKVX cells assessed as cell growth at 10 uM after 48 hrs by SRB assay. The conditions noted are these: read-out: Activity.
The subject of another assay is MDA-MB-231. The assay is described as follows: Cytotoxicity against human MDA-MB-231 cells assessed as cell growth at 10 uM after 48 hrs by SRB assay. The settings on record: MDA-MB-231, 48 h, read-out: Activity.
For assay [20], the system named is NCI-H322M. Put plainly: Cytotoxicity against human NCI-H322M cells assessed as cell growth at 7.25 uM after 48 hrs by SRB assay. The conditions noted are these: read-out: Activity.
Assay [21] can be described thus: Cytotoxicity against human SNB75 cells assessed as cell growth at 7.25 uM after 48 hrs by SRB assay. The conditions noted are these: SNB-75, 48 h, read-out: Activity.
The test system of the next assay is NCI-H522. Put plainly: Cytotoxicity against human NCI-H522 cells assessed as cell growth at 7.25 uM after 48 hrs by SRB assay. The settings on record: NCI-H522, 48 h, read-out: Activity.
Assay [22] can be described thus: Cytotoxicity against human NCI-ADR-RES cells assessed as cell growth at 7.25 uM after 48 hrs by SRB assay. The settings on record: read-out: Activity.
The subject of assay [23] is A498. Put plainly: Cytotoxicity against human A498 cells assessed as cell growth at 7.25 uM after 48 hrs by SRB assay. The conditions noted are these: A498, 48 h, read-out: Activity.
In a further assay the test system is 786-0. The assay is described as follows: Cytotoxicity against human 786-0 cells assessed as cell growth at 7.25 uM after 48 hrs by SRB assay. The settings on record: 786-0, 48 h, read-out: Activity.
The nature of assay [24]: Cytotoxicity against human SKOV3 cells assessed as cell growth at 7.25 uM after 48 hrs by SRB assay. The conditions noted are these: SK-OV-3, 48 h, read-out: Activity.
Assay [25] can be described thus: Cytotoxicity against human SNB19 cells assessed as cell growth at 7.25 uM after 48 hrs by SRB assay. The conditions noted are these: SNB-19, 48 h, read-out: Activity.
In a further assay the test system is MDA-MB-468. Put plainly: Cytotoxicity against human MDA-MB-468 cells assessed as cell growth at 7.25 uM after 48 hrs by SRB assay. The settings on record: MDA-MB-468, 48 h, read-out: Activity.
Assay [26] in a line: Cytotoxicity against human PC3 cells assessed as cell growth at 7.25 uM after 48 hrs by SRB assay. The settings on record: PC-3, 48 h, read-out: Activity.
Assay [27] in a line: Cytotoxicity against human UACC62 cells assessed as cell growth at 7.25 uM after 48 hrs by SRB assay. The conditions noted are these: UACC-62, 48 h, read-out: Activity.
A short description of assay [28]: Cytotoxicity against human HOP92 cells assessed as cell growth at 7.25 uM after 48 hrs by SRB assay. The conditions noted are these: HOP-92, 48 h, read-out: Activity.
Assay [29] is described as follows: Cytotoxicity against human HL-60(TB) cells assessed as cell growth at 7.25 uM after 48 hrs by SRB assay. The conditions noted are these: HL-60, 48 h, read-out: Activity.
The nature of assay [30]: Cytotoxicity against human COLO205 cells assessed as cell growth at 7.25 uM after 48 hrs by SRB assay. The settings on record: COLO 205, 48 h, read-out: Activity.
Assay [31] in a line: Cytotoxicity against human BT549 cells assessed as cell growth at 7.25 uM after 48 hrs by SRB assay. The conditions noted are these: BT-549, 48 h, read-out: Activity.

In the case of `CCCCCCCCCCCCCCCCNCCO[C@H]1C[C@H](n2cc(C)c(=O)[nH]c2=O)O[C@@H]1C(=O)NCCCC[C@H](NC(=O)[C@H](C)NC(=O)[C@H](CCCCN)NC(=O)[C@H](C)NC(=O)[C@H](CC(C)C)NC(=O)[C@H](CCCCN)NC(=O)[C@H](C)NC(=O)[C@H](CC(C)C)NC(=O)[C@H](CCCCN)NC(=O)[C@H](CCCCN)NC(=O)[C@H](C)NC(=O)[C@H](CC(C)C)NC(=O)[C@H](CCCCN)NC(=O)[C@H](C)NC(=O)[C@H](CC(C)C)NC(=O)[C@H](CCCCN)NC(=O)[C@@H](N)CC(=O)O)C(N)=O`, the growth at 2.13 µM is 104% in assay [1]; 109% in [2]; 102% with HT-29 [3]; 103% with KM12 [4]; 105% in assay [6]; 98.8% in [7]. Further, the growth at 2.13 µM is 75.8% in [8]; 104% in the assay with Malme-3M; 97.7% in [9]; 86.8% in assay [10]; 98.9% with MCF7; 104% in assay [11]. Also, the growth at 2.13 µM with A498 [12] is 109%. Besides, the mortality (usually the share of the test organisms that died) at 2.13 µM with A549 [5] came out at 31%.

`CC(C)C[C@H](NC(=O)[C@H](CCCCN)NC(=O)[C@H](C)NC(=O)[C@H](CC(C)C)NC(=O)[C@H](CCCCN)NC(=O)[C@H](CCCCN)NC(=O)[C@H](C)NC(=O)[C@H](CC(C)C)NC(=O)[C@H](CCCCN)NC(=O)[C@H](C)NC(=O)[C@H](CC(C)C)NC(=O)[C@H](CCCCN)NC(=O)[C@@H](N)CC(=O)O)C(=O)N[C@@H](C)C(=O)N[C@@H](CCCCN)C(=O)N[C@@H](C)C(=O)N[C@@H](CCCCN)C(N)=O`: the growth at 10 µM in [13] came out at 110%; in assay [14] it was 71.8%; in assay [15], 105%; with NCI-H23, 103%; in the assay on HT-29 [16], 94.8%; in the assay with KM12 [17] it was 103%. The growth at 10 µM was 90.7% in the assay on SK-MEL-2; 110% in the assay with NCI-H322M [19]; 108% with CCRF-CEM; 104% with EKVX; 109% in the assay on MDA-MB-231. Moreover, in the assay on A549 [18], the mortality at 10 µM amounted to 19%.

Turning to `CCCCCCCCCCCCCCCC(=O)NCCCC[C@H](NC(=O)[C@H](C)NC(=O)[C@H](CCCCN)NC(=O)[C@H](C)NC(=O)[C@H](CC(C)C)NC(=O)[C@H](CCCCN)NC(=O)[C@H](C)NC(=O)[C@H](CC(C)C)NC(=O)[C@H](CCCCN)NC(=O)[C@H](CCCCN)NC(=O)[C@H](C)NC(=O)[C@H](CC(C)C)NC(=O)[C@H](CCCCN)NC(=O)[C@H](C)NC(=O)[C@H](CC(C)C)NC(=O)[C@H](CCCCN)NC(=O)[C@@H](N)CC(=O)O)C(N)=O`, the growth at 7.25 µM was 108% in the assay on NCI-H322M [20]; 93.6% in assay [21]; 83.5% in the assay on NCI-H522; 111% in [22]; 111% with A498 [23]; 107% in the assay on 786-0. Further, the growth at 7.25 µM in assay [24] was 99.8%; in [25], 103%; in the assay on MDA-MB-468, 95.9%; in assay [26], 91.2%; in [27], 102%; in [28], 113%. In addition, the growth at 7.25 µM in [29] came to 93.1%; in [30], 112%; in assay [31], 104%.
